The text below walks through data of article PMC7956620 (Molecules, 2021).

Format in all cases: cell-based
Holding throughout (conditions): 100 µM chanoclavine, read-out: Inhibition Percentage (%)

In experiment [1] the target is T1, 5-HT3A receptor I71A mutant (Homo sapiens, UniProt P46098, I66A).
T1 construct: host or cells: Xenopus laevis oocytes injected with in vitro transcribed mRNA
T1 sequence (P46098 24-478 I66A): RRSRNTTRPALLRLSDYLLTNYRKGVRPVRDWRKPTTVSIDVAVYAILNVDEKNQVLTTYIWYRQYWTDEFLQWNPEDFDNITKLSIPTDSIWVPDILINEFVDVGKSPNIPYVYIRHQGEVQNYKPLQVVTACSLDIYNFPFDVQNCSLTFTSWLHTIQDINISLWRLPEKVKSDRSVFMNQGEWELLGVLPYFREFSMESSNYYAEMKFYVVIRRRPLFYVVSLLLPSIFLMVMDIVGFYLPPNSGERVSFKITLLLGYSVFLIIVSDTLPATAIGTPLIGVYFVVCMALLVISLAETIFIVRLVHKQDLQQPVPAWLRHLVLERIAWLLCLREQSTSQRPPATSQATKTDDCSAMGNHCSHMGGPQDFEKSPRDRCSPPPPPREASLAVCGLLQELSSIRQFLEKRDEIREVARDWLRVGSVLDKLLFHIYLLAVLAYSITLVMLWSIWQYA
Description: two-electrode voltage clamp, I71A mutant receptor in Xenopus oocytes. As to the method: (§1) The site-directed mutation of one or two amino acids was performed using sense and antisense primers and Pfu polymerase (QuickChange Site-Directed Mutagenesis Kit; Agilent, Santa Clara, CA, USA) and amplified by polymerase chain reaction (PCR) to increase the target domain. After removing the existing methylated cDNA using Dpn Ⅰ, the PCR products were transformed into Escherichia coli strain DH5α. The cDNA of the 5-HT3A receptor was linearized by Xho Ⅰ at the end of the multi-cloning site, followed by transcription using T7 polymerase and a transcription kit (mMESSAGE mMACHINE T7 Transcription Kit; Thermo Fisher Scientific, Waltham, MA, USA). […]
(§2) To isolate oocytes, female Xenopus laevis were put into a container filled with ice and left for about one hour. […] When the Xenopus oocytes were ready for injection, 50 ng of mRNA was injected with a nanoliter injector (Drummond Scientific, Vernon Hills, IL, USA). […]
(§3) The oocytes in which mRNA was expressed during the incubation period allowed for the estimation of channel or receptor properties for observing drug and ligand potential interactions using a two-electrode voltage clamp (OC-725C; Warner Instruments, Hamden, CT, USA) and Digidata (1322A; Molecular Devices, Sunnyvale, CA, USA). […] The voltage and current electrodes were filled with 3 M KCl (0.3–0.7 MΩ) and analyzed at a −80 mV holding potential. […]
(In two-electrode clamp one electrode senses voltage and the other passes current.)

The target of experiment [2] is T2, 5-HT3A receptor N138A mutant (Homo sapiens, UniProt P46098, N133A).
T2 construct: host or cells: Xenopus laevis oocytes injected with in vitro transcribed mRNA
T2 sequence (P46098 24-478 N133A): T1 sequence (P46098 24-478 I66A) with A43I, N110A
The experiment can be described thus: two-electrode voltage clamp, N138A mutant receptor in Xenopus oocytes. The protocol:
as §1, §2, §3

Experiment [3] addresses T3, 5-HT3A receptor L156A mutant (Homo sapiens, UniProt P46098, L151A).
T3 construct: host or cells: Xenopus laevis oocytes injected with in vitro transcribed mRNA
T3 sequence (P46098 24-478 L151A): T1 sequence (P46098 24-478 I66A) with A43I, L128A
Description: two-electrode voltage clamp, L156A mutant receptor in Xenopus oocytes. As to the method: as §1, §2, §3

Positions count from the first letter of the chain named.

As for `CN[C@@H]1Cc2c[nH]c3cccc(c23)[C@H]1/C=C(\C)CO` [chanoclavine], the inhibition at 100 µM was 62.7 ± 3.1% in experiment [1], -1.64 ± 6.2% in experiment [2] and 46.1 ± 6.5% in experiment [3].

A word on the inhibition: it is the drop in the measured response relative to a control, in per cent.
